Laboratory results taken from ChEMBL document CHEMBL1123652, “Optimization and in vivo evaluations of a series of small, potent, and specific renin inhibitors containing a novel Leu-Val replacement” (J Med Chem, 1987).

Legend:
Pepsin A (Sus scrofa) [1] = molecular target: Pepsin A (Sus scrofa) (UniProt P00791); assay: Evaluated for the percentage of inhibition of porcine pepsin at E-5M concentration
Renin = molecular target: T1, Renin (Homo sapiens, UniProt P00797); assay: Evaluated in vitro for inhibitory potency against renin.
T1 sequence (P00797 whole entry): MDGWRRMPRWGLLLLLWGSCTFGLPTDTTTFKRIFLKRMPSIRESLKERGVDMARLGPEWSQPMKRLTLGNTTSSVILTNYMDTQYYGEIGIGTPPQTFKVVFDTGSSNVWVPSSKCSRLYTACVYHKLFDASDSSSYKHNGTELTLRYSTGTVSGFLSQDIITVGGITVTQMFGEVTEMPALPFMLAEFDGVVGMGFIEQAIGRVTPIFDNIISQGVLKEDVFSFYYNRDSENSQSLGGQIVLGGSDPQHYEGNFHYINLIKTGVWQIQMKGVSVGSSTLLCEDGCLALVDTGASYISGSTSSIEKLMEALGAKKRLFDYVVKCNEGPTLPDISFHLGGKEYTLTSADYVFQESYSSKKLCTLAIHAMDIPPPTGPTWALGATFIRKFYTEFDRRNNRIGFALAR

Cathepsin D (Bos taurus) [2] = molecular target: T2, Cathepsin D (Bos taurus) (UniProt P80209); assay: Evaluated for the percentage of inhibition of bovine cathepsin D at E-5M concentration
T2 sequence (whole entry): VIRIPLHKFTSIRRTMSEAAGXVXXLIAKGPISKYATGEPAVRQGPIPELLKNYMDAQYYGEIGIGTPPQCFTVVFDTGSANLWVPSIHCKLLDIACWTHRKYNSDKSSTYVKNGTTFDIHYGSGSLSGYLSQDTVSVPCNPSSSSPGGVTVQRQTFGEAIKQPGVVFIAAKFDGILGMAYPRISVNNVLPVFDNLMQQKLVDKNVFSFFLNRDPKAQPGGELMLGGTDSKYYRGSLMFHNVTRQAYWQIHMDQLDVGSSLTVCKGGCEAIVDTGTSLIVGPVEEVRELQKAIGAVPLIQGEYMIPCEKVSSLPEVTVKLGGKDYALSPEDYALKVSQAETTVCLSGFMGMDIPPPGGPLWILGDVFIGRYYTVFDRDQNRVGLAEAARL

Renin (Homo sapiens) [3] = molecular target: T3, Renin (Homo sapiens) (UniProt P00797); assay: Evaluated in vitro for inhibitory potency against renin at 10e-5 M
T3 sequence (whole entry): T1 sequence (P00797 whole entry)

Cathepsin D (Bos taurus) [4] = molecular target: T2, Cathepsin D (Bos taurus); assay: Compound is evaluated for the percentage of inhibition of […] 10e-5 M concentration in, bovine cathepsin D
Pepsin A (Sus scrofa) [5] = molecular target: Pepsin A (Sus scrofa) (UniProt P00791); assay: Compound is evaluated for the percentage of inhibition of […] 10 e-5M concentration in porcine pepsin
Renin (Homo sapiens) [6] = molecular target: T3, Renin (Homo sapiens); assay: Evaluated in vitro for inhibitory potency against renin at 10e-6 M

Chain of Pepsin A (Sus scrofa) (P00791 60-385 limits assumed): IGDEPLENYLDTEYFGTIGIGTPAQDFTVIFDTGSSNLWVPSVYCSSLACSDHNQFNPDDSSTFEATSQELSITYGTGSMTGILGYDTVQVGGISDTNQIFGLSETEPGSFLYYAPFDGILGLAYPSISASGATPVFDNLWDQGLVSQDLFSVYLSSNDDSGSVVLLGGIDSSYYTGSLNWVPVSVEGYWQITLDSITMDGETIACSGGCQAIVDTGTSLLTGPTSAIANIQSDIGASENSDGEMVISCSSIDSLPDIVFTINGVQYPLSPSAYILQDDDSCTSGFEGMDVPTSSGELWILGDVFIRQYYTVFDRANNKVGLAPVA

| Compound | inhibition (Pepsin A (Sus scrofa) [1]) [%] | IC50 (Renin) [nM] | inhibition (Cathepsin D (Bos taurus) [2]) [%] | further results |
| --- | --- | --- | --- | --- |
| CC(C)S(=O)(=O)C[C@H](O)[C@H](CC1CCCCC1)NC(=O)C(Cc1cnc[nH]1)NC(=O)C(Cc1ccccc1)Cc1ccccc1 (stereo not given in full) | – | 70 | – | – |
| CC(C)S(=O)(=O)C[C@H](O)[C@H](CC1CCCCC1)NC(=O)[C@H](Cc1c[nH]cn1)NC(=O)[C@@H](N)[C@@H](C)OCc1ccccc1 | – | 300 | – | – |
| CC(=O)NCCCC[C@H](NC(=O)[C@H](Cc1ccccc1)NC(=O)OC(C)(C)C)C(=O)N[C@@H](CC1CCCCC1)[C@@H](O)CS(=O)(=O)C(C)C | – | 300 | – | – |
| CC(C)(C)OC(=O)NC(Cc1c[nH]cn1)C(=O)N[C@@H](CC1CCCCC1)[C@@H](O)CS(=O)(=O)C1CCCCC1 (stereo not given in full) | – | – | – | inhibition (Renin (Homo sapiens) [3]): 5% |
| CC(C)S(=O)(=O)C[C@H](O)[C@H](CC1CCCCC1)NC(=O)[C@H](Cc1c[nH]cn1)NC(=O)[C@H](Cc1ccccc1)NC(=O)CC(C)(C)C [listing 1 of 3 here] | 0 | – | 0 | – |
| CCOC(=O)N[C@H](C(=O)N[C@@H](Cc1c[nH]cn1)C(=O)N[C@@H](CC1CCCCC1)[C@@H](O)CS(=O)(=O)C(C)C)[C@@H](C)OCc1ccccc1 | – | 20 | – | – |
| CC(C)S(=O)(=O)C[C@H](O)[C@H](CC1CCCCC1)NC(=O)[C@H](Cc1ccccc1)NC(=O)[C@H](Cc1ccccc1)NC(=O)OC(C)(C)C | 4 | 30 | 0 | – |
| CC(C)S(=O)(=O)C[C@H](O)[C@H](CC1CCCCC1)NC(=O)[C@H](CCCCN)NC(=O)[C@H](Cc1ccccc1)NC(=O)OC(C)(C)C | – | – | – | inhibition (Renin (Homo sapiens) [6]): 34% |
| CC(C)S(=O)(=O)C[C@H](O)[C@H](CC1CCCCC1)NC(=O)[C@H](C)NC(=O)[C@H](Cc1ccccc1)NC(=O)OC(C)(C)C | 0 | 70 | 55 | – |
| CC(C)S(=O)(=O)C[C@H](O)[C@H](CC1CCCCC1)NC(=O)C(Cc1c[nH]cn1)NC(=O)[C@@H](Cc1ccccc1)NC(=O)OC(C)(C)C (stereo not given in full) | 0 | 150 | 0 | – |
| CC(C)(C)OC(=O)N[C@@H](Cc1ccccc1)C(=O)N[C@@H](Cc1c[nH]cn1)C(=O)N[C@@H](CC1CCCCC1)[C@@H](O)CS(C)(=O)=O | – | 40 | – | – |
| O=C(NC(Cc1cnc[nH]1)C(=O)N[C@@H](CC1CCCCC1)[C@@H](O)CSC1CCCCC1)C(Cc1ccccc1)Cc1ccccc1 (stereo not given in full) | – | 20 | – | – |
| CC(C)S(=O)(=O)C[C@H](O)[C@H](CC1CCCCC1)NC(=O)[C@H](CCO)NC(=O)[C@H](Cc1ccccc1)NC(=O)OC(C)(C)C | – | 20 | – | – |
| CC(C)S(=O)(=O)C[C@H](O)[C@H](CC1CCCCC1)NC(=O)C(Cc1c[nH]cn1)NC(=O)C(Cc1ccccc1)Cc1ccccc1 (stereo not given in full) | 0 | – | 0 | – |
| CC(C)CC(NC(=O)C(Cc1ccccc1)Cc1ccccc1)C(=O)N[C@@H](CC1CCCCC1)[C@@H](O)CS(=O)(=O)C(C)C (stereo not given in full) | – | 25 | – | – |
| CC(C)S(=O)(=O)C[C@H](O)[C@H](CC1CCCCC1)NC(=O)[C@H](CCCCNC(=O)OCc1ccccc1)NC(=O)[C@H](Cc1ccccc1)NC(=O)OC(C)(C)C | – | 100 | – | – |
| CC(C)S(=O)(=O)C[C@H](O)[C@H](CC1CCCCC1)NC(=O)[C@H](CCCN)NC(=O)[C@H](Cc1ccccc1)NC(=O)OC(C)(C)C | – | – | – | inhibition (Renin (Homo sapiens) [6]): 43% |
| O=C(NC(Cc1cnc[nH]1)C(=O)N[C@@H](CC1CCCCC1)[C@@H](O)CS(=O)(=O)C1CCCCC1)C(Cc1ccccc1)Cc1ccccc1 (stereo not given in full) | – | 40 | – | – |
| CC(C)S(=O)(=O)C[C@H](O)[C@H](CC1CCCCC1)NC(=O)[C@H](CO)NC(=O)[C@H](Cc1ccccc1)NC(=O)OC(C)(C)C | 0 | 40 | 47 | – |
| O=C(NC(Cc1c[nH]cn1)C(=O)N[C@@H](CC1CCCCC1)[C@@H](O)CSC1CCCCC1)C(Cc1ccccc1)Cc1ccccc1 (stereo not given in full) | 0 | – | 0 | – |
| CC(C)S(=O)(=O)C[C@H](O)[C@H](CC1CCCCC1)NC(=O)[C@H](CCCNC(=O)OCc1ccccc1)NC(=O)[C@H](Cc1ccccc1)NC(=O)OC(C)(C)C | – | 60 | – | – |
| O=C(COc1ccccc1)NC(Cc1c[nH]cn1)C(=O)N[C@@H](CC1CCCCC1)[C@@H](O)CSC1CCCCC1 (stereo not given in full) | – | 430 | – | – |
| CC(C)(C)OC(=O)N[C@@H](Cc1ccccc1)C(=O)N[C@@H](Cc1c[nH]cn1)C(=O)N[C@@H](CC1CCCCC1)[C@H](O)CSC1CCCCC1 | – | 100 | – | – |
| CC(C)S(=O)(=O)C[C@H](O)[C@H](CC1CCCCC1)NC(=O)[C@H](Cc1c[nH]cn1)NC(=O)[C@H](COCc1ccccc1)NC(=O)OC(C)(C)C | – | 75 | – | – |

Second part, led by results:

| inhibition (Pepsin A (Sus scrofa) [1]) [%] | IC50 (Renin) [nM] | inhibition (Cathepsin D (Bos taurus) [2]) [%] | Compound | further results |
| --- | --- | --- | --- | --- |
| 0 | 5.5 | 0 | CC(C)S(=O)(=O)C[C@H](O)[C@H](CC1CCCCC1)NC(=O)[C@H](Cc1c[nH]cn1)NC(=O)[C@@H](NC(=O)OC(C)(C)C)[C@@H](C)OCc1ccccc1 | – |
| 4 | 15 | 0 | CC(C)(C)OC(=O)N[C@@H](Cc1ccccc1)C(=O)N[C@@H](Cc1c[nH]cn1)C(=O)N[C@@H](Cc1ccccc1)[C@@H](O)CSC1CCCCC1 | – |
| – | 8 | – | CC(C)S(=O)(=O)C[C@H](O)[C@H](CC1CCCCC1)NC(=O)[C@@H](NC(=O)[C@H](Cc1ccccc1)NC(=O)OC(C)(C)C)[C@@H](C)O | – |
| – | 4 | – | CC(C)(C)OC(=O)N[C@@H](Cc1ccccc1)C(=O)N[C@@H](Cc1c[nH]cn1)C(=O)N[C@@H](CC1CCCCC1)[C@@H](O)CSC1CCCCC1 | inhibition (Cathepsin D (Bos taurus) [4]): 0%; inhibition (Pepsin A (Sus scrofa) [5]): 9% |
| – | 10 | – | CC(C)C(=O)N[C@H](C(=O)N[C@@H](Cc1c[nH]cn1)C(=O)N[C@@H](CC1CCCCC1)[C@@H](O)CS(=O)(=O)C(C)C)[C@@H](C)OCc1ccccc1 | – |
| – | 9.9 | – | CC(C)SC[C@H](O)[C@H](CC1CCCCC1)NC(=O)[C@H](C)NC(=O)[C@H](Cc1ccccc1)NC(=O)OC(C)(C)C | – |
| 0 | 3 | 0 | COc1ccc(C[C@H](NC(=O)OC(C)(C)C)C(=O)N[C@@H](Cc2c[nH]cn2)C(=O)N[C@@H](CC2CCCCC2)[C@@H](O)CS(=O)(=O)C(C)C)cc1 | – |
| – | 10 | – | CSC[C@H](O)[C@H](CC1CCCCC1)NC(=O)[C@H](Cc1c[nH]cn1)NC(=O)[C@H](Cc1ccccc1)NC(=O)OC(C)(C)C | – |
| – | 4 | – | CC(C)SC[C@H](O)[C@H](CC1CCCCC1)NC(=O)[C@H](Cc1c[nH]cn1)NC(=O)[C@H](Cc1ccccc1)NC(=O)OC(C)(C)C | inhibition (Cathepsin D (Bos taurus) [4]): 0%; inhibition (Pepsin A (Sus scrofa) [5]): 0% |
| – | 4 | – | CC(C)C[C@H](NC(=O)[C@H](Cc1ccccc1)NC(=O)OC(C)(C)C)C(=O)N[C@@H](CC1CCCCC1)[C@@H](O)CS(=O)(=O)C(C)C | – |
| 18 | 6 | 95 | CC(C)S(=O)(=O)C[C@H](O)[C@H](CC1CCCCC1)NC(=O)[C@@H](NC(=O)[C@H](Cc1ccccc1)NC(=O)OC(C)(C)C)[C@@H](C)OCc1ccccc1 | – |
| – | 5 | – | CCOC(=O)N[C@@H](Cc1ccccc1)C(=O)N[C@@H](Cc1c[nH]cn1)C(=O)N[C@@H](CC1CCCCC1)[C@@H](O)CS(=O)(=O)C(C)C | – |
| 0 | 2 | 0 | CC(C)S(=O)(=O)C[C@H](O)[C@H](CC1CCCCC1)NC(=O)[C@H](Cc1c[nH]cn1)NC(=O)[C@H](Cc1ccccc1)NC(=O)OC(C)(C)C | – |
| – | 6.5 | – | CC(C)CSC[C@H](O)[C@H](CC1CCCCC1)NC(=O)[C@H](Cc1c[nH]cn1)NC(=O)[C@H](Cc1ccccc1)NC(=O)OC(C)(C)C | – |
| – | 3.5 | – | CC(C)S(=O)(=O)C[C@H](O)[C@H](CC1CCCCC1)NC(=O)[C@H](Cc1c[nH]cn1)NC(=O)[C@H](Cc1ccccc1)NC(=O)CC(C)(C)C [listing 2 of 3 here] | – |
| – | 3 | – | CC(C)S(=O)(=O)C[C@H](O)[C@H](CC1CCCCC1)NC(=O)[C@H](Cc1c[nH]cn1)NC(=O)[C@H](Cc1ccccc1)NC(=O)CC(C)(C)C [listing 3 of 3 here] | – |
